The results in this text go back to ChEMBL document CHEMBL5726652, “Oxazole orexin receptor antagonists” (2017).

For this test, the target named is T1, Orexin receptor type 2 (Homo sapiens, UniProt O43614).
T1 sequence (O43614 whole entry): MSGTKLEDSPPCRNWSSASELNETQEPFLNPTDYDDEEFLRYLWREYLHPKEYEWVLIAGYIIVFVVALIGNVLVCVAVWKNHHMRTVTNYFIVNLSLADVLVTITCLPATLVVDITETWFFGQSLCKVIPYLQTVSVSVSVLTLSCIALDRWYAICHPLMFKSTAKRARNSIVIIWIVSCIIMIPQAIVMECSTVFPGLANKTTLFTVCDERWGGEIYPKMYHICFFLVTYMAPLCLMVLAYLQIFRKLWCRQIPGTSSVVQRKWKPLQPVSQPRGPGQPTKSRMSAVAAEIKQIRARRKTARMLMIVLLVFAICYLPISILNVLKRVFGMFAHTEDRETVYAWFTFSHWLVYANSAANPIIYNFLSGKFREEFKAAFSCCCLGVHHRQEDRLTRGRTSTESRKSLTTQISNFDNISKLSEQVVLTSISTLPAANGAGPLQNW
The test can be described thus: FLIPR Ca2+ Flux Assay: For intracellular calcium measurements, Chinese hamster ovary (CHO) cells expressing the rat orexin-1 receptor or the human orexin-2 receptor, are grown in Iscove's modified DMEM containing 2 mM L-glutamine, […], 1% hypoxanthine-thymidine supplement, 100 U/ml penicillin, 100 μg/ml streptomycin and 10% heat-inactivated fetal calf serum (FCS). The cells are seeded at 20,000 cells/well into Becton-Dickinson black 384-well clear bottom sterile plates coated with poly-D-lysine. All reagents were from GIBCO-Invitrogen Corp. The seeded plates are incubated overnight at 37° C. and 5% CO2. Ala-6,12 human orexin-A as the agonist is prepared as a 1 mM stock solution in 1% bovine serum albumin (BSA) and diluted in assay buffer (HBSS containing 20 mM HEPES, 0.1% BSA and 2.5 mM probenecid, pH7.4) for use in the assay at a final concentration of 70 pM. Test compounds are prepared as 10 mM stock solution in DMSO, then diluted in 384-well plates, first in DMSO, then assay buffer. On the day of the assay, cells are washed 3 times with 100 μl assay buffer and then incubated for 60 min (37° C., 5% CO2) in 60 μl assay buffer containing 1 μM Fluo-4AM ester, 0.02% pluronic acid, and 1% BSA. The dye loading solution is then aspirated and cells are washed 3 times with 100 μl assay buffer. 30 μl of that same buffer is left in each well. […]. The test is classed as cell-based. On the technique in general: A change in cytosolic calcium serves as a functional read-out for many receptors and channels.

Regarding `COC(=O)Cc1nc([C@@H]2CC[C@@H](C)N(C(=O)c3ccccc3-n3nccn3)C2)oc1-c1ccccc1`, the IC50 was determined as 33 nM.

In the case of `Cc1oc([C@@H]2CC[C@@H](C)N(C(=O)c3cscc3-c3ncccn3)C2)nc1C(C)(C)O`, the IC50 is 56 nM.

As a reminder, the IC50 is the concentration needed to halve the response being measured.
